Entries after “also recorded” stand apart in the source; their conditions may differ. One block for each compound: values may come before it.
Columns and labels:
S somaliensis = settings: McNeil and Brown 1994; cited from earlier work
[1] = tested on: Arcanobacterium haemolyticum; settings: reported in the literature; cited from earlier work
[2] = tested on: NADPH-oxidase activity of monocytes; test: NADPH-oxidase activity of monocytes, isoluminol-enhanced chemiluminescence; type: cell-based, human
Procedure: (§1) Peripheral blood was obtained from healthy blood donors at Sahlgren's Hospital, Göteborg, Sweden. […] See Hansson et al. 1996. […] J Immunol. 156:427.
NADPH-oxidase activity was determined using an isoluminol-enhanced chemiluminescence (CL) system that quantitates extracellular reactive oxygen species (ROS). See Dahlgren, C., Karlsson, A. 1999. Respiratory burst in human neutrophils. J Immunol Methods 232:3-14.
Superoxide anion production in elutriated monocytes was investigated by isoluminol-amplified CL (A). Cells were treated with histamine (50 μM) or the histamine H2 receptor antagonist ranitidine (50 μM).

NK cells and T cells = test: Flow cytometry assay of lymphocyte apoptosis induced by Hp(2-20)-activated monocytes; type: cell-based, human
Excerpt: as §1
Apoptosis was monitored by use of flow cytometry, as described elsewhere. See Mellqvist et al. 2000. […] Blood. 96:1961-8. T cells or NK cells were gated after exposure to monocytes, and the gate was set to comprise lymphocytes with a reduced forward scatter and an increased right angle scatter characteristic of apoptosis. See Hansson et al. 1996. Two additional methods were used to determine apoptosis in NK cells and T cells: analysis of DNA strand breaks by terminal deoxynucleotidyl transferase-mediated bromolated dUTP nick end labelling of DNA fragments (TUNEL assay) and Annexin V staining, as described elsewhere. See Mellqvist et al.; Hansson et al. 1999. […] J Interferon Cytokine Res. 19:1135-44.
One million cells were stained with appropriate fluorescein isothiocyanate (FITC)- and phycoerythrin (PE)-conjugated monoclonal antibodies (Becton & Dickinson, Stockholm, Sweden; 10 μl/10^6 cells), as described in detail elsewhere. See Hansson et al. 1999. Cells were analyzed by use of flow cytometry on a FACSort with a Lysys II software program (Becton & Dickinson). Lymphocytes were gated on the basis of forward and right angle scatter. The flow rate was adjusted to <200 cells x s^−1 and at least 5×10^3 cells were analyzed for each sample.
After incubation, cells in a lymphocyte gate were assayed for morphological features of apoptosis (reduced forward and increased right angle scatter) by use of flow cytometry. In A, data are the frequency of apoptotic CD56^+ (NK; dark gray bars) or CD3ε^+ (T; open bars) after the following treatments:
Monocytes and/or lymphocytes were prepared as described in Methods. After incubation for 16 hrs, cells in a lymphocyte gate were assayed for morphological features of apoptosis (reduced forward and increased right angle scatter) by use of flow cytometry. Data are the frequency of apoptotic lymphocytes. histamine dihydrochloride, ranitidine, and Hp(2-20) were used at 50 μM, catalase at 100 U/ml, and SOD at 50 U/ml.

microbial infections = settings: 0.08% by weight together with antimicrobial
Procedure: The ability of the ROM production and release inhibition compounds of the described embodiment to increase the effectiveness of antimicrobials is evaluated in two groups of 10 subjects each. No subjects are suffering from active infections at the initiation of the study. Group I subjects receive the type of antimicrobial used in treating the specific infection according to the dosage given by the manufacturer. […] The healing time of the patient in each group is then monitored.

Chlamidia trachomatis = settings: ophthalmic solution 0.09% by weight, containing erythromycin, every three hours
Procedure: A subject presenting an eye infection due to Chlamidia trachomatis is treated with the compositions of the described embodiment using an ophthalmic solution of histamine dihydrochloride at 0.09% by weight of formulation. Commercially available ophthalmic solutions are well known in the art. Additionally, the ophthalmic solution, preferably in drop form, contains erythromycin. Application of the solution to the eye occurs every three hours. A solution containing only the ROM production and release inhibiting compound is given hourly to ease the discomfort of the subject.

Tinea infection = settings: cream, 0.08% by weight, topical four to five times a day
Excerpt: Treatment of the subjects consists of the topical application of the medication four to five times a day at the lesion site. When treating fungal growths, care is taken not to contaminate new areas with fungal spores.

Helicobacter pylori = test: Treatment of ulcers caused by Helicobacter pylori, oral controlled release device; type: in vivo; settings: in combination with chemotherapeutics
Procedure: A patient diagnosed with ulcers caused by Helicobacter pylori is treated with the compounds of the described embodiment. A controlled release mechanism is replenished with an effective dose of the ROM inhibitory compound NADPH oxidase inhibitor diphenlyeneiodonium and administered to the patient by oral intake of the device. As the device rests in the patient's stomach it simultaneously delivers the compounds of the described embodiment and decomposes in order to allow excretion from the body. The compounds of the described embodiment are administered in combination with chemotherapeutics typically administered for such an infection, such as amoxycillin, clarithromycin, tetracycline, or metronidazole.

Streptococcus mutans = test: Treatment of dental carries using a toothpaste and mouthwash; type: in vivo; settings: toothpaste and mouthwash 0.05% by weight, five times per day for seven days
Procedure: A subject suffering from dental carries due to Streptococcus mutans is treated with a toothpaste and a mouthwash containing the ROM inhibitory compound NADPH oxidase inhibitor diphenlyeneiodonium in a concentration of 0.05% by weight of formulation. The treatment consists of five tooth brushings with this toothpaste and mouthwash applications per day for a period of seven days.

[3] = tested on: diarrhea-causing pathogens (Escherichia coli, Salmonella, Shigella or the like); test: Treatment of diarrhea by oral administration of a capsule; type: in vivo; settings: capsule 0.8% by weight, three to ten per day for seven to thirty days, with chemotherapeutic
Procedure: A subject suffering from diarrhea due to any number of pathogenic geni, speci, or strain of Escherichia coli, Proteus mirabilis, Salmonella enteritidis, Klebsiella Yersinia, Shigella, Serratia, Candida, Giardia intestinalis, Cryptosporidium, Vibrio cholera, Campylobacter, Ascaris or the like responsible for gastrointestinal distress in the form of diarrhea or the like is treated with a capsule containing the ROM inhibitory compound NADPH oxidase inhibitor diphenlyeneiodonium in a concentration of 0.8% by weight of formulation in addition to administration of the appropriate chemotherapeutic compound, such as an aminoglycoside, chloramphenicol, trimethoprimsulfa-methoxazole, doxycycline, or a fluoroquinolone. The treatment consists of oral intake of three to ten capsules per day for a period of seven to thirty days (depending the causative agent of the infection).

Streptococcus pneumonia = test: Treatment of Streptococcus pneumonia lung infection using a nebulizer; type: in vivo; settings: 0.05% by weight, mist through a nebulizer
Procedure: A subject diagnosed with Streptococcus pneumonia is treated with compounds of the described embodiment in the form of a nebulizer. The nebulizer is held firmly against the oral-nasal cavities of a patient with a respiratory infection. The nebulizer is used to deliver an aerosol mist as the patient inhales deeply. The aerosol mist contains either solely an effective amount of the preparation herein described or a mixture of the preparation and the chemotherapeutic used often administered for such an infection, such as, cephalexin. The ROM inhibitory compound NADPH oxidase inhibitor diphenlyeneiodonium in a concentration of 0.05% by weight of formulation is delivered as a mist in the patients lungs through a nebulizer.

NADPH oxidase = NADPH oxidase (Homo sapiens, UniProt P04839); settings: membrane-bound phagocyte oxidase, substrate; cited from earlier work
[4] = tested on: NADPH-oxidase activity of monocytes; settings: earlier finding, Bylund et al. 2001; cited from earlier work
[5] = ranitidine 50 μM with histamine 50 μM
[6] = histamine 50 μM, catalase 100 U/ml, SOD 50 U/ml, Hp(2-20) 50 μM, 16 hrs

Compound: CC(=O)O[C@H]1C[C@@]2(C)[C@@H](C[C@@H](O)[C@H]3[C@@]4(C)CC[C@@H](O)[C@@H](C)[C@@H]4CC[C@@]32C)/C1=C(\CCC=C(C)C)C(=O)O [fusidic acid]
In vitro sensitivity of S somaliensis (S somaliensis): sensitive
Susceptibility of A. haemolyticum [1]: uniformly susceptible

Effect on histamine's inhibition of Hp(2-20)-induced oxygen radical formation [2, 5]: reversed the inhibition
Compound: CNC(=C[N+](=O)[O-])NCCSCc1ccc(CN(C)C)o1.Cl [ranitidine, ranitidine hydrochloride]
Effect on the histamine-induced protection of T cells and NK cells from apoptosis (NK cells and T cells; [5]): antagonized

Compound: Cl.Cl.NCCc1c[nH]cn1 [Histamine, Histamine dihydrochloride]
Inhibition of Hp(2-20)-induced oxygen radical formation in monocytes ([2]; histamine 50 μM, elutriated monocytes, dihydrochloride): markedly inhibited; also recorded: reduce or inhibit
Protection of NK cells and T cells from monocyte-dependent, Hp(2-20)-induced apoptosis (NK cells and T cells; dihydrochloride): resuced T cells and NK cells from apoptosis; also recorded: protected NK cells/T cells from the monocyte-induced apoptosis; also recorded: prevent the triggering of NK cell and T cell apoptosis; also recorded: protect T cells and NK cells from apoptotic cell death
Healing time with antimicrobial plus ROM inhibitory composition versus antimicrobial alone (microbial infections): faster healing time
Time period of bacterial eye infection, damage and discomfort (Chlamidia trachomatis): reduces the time period of bacterial infection
Healing time compared to the control group (Tinea infection): decrease in healing time

Compound: NC[C@H]1O[C@H](O[C@H]2[C@H](O)[C@@H](O[C@H]3O[C@H](CO)[C@@H](O)[C@H](N)[C@H]3O)[C@H](N)C[C@@H]2N)[C@H](N)C[C@@H]1O [tobramycin]
In vitro sensitivity of S somaliensis (S somaliensis): sensitive

Compound: COc1cc(Cc2cnc(N)nc2N)cc(OC)c1OC [trimethoprim]
In vitro sensitivity of S somaliensis (S somaliensis): resistant

Compound: O=C(N[C@H](CO)[C@H](O)c1ccc([N+](=O)[O-])cc1)C(Cl)Cl [chloramphenicol]
Susceptibility of A. haemolyticum [1]: uniformly susceptible

Compound: Superoxide dismutase [SOD]
Protection of NK cells and T cells from monocyte-dependent, Hp(2-20)-induced apoptosis (NK cells and T cells; [6]): completely prevented

Compound: catalase
Protection of NK cells and T cells from monocyte-dependent, Hp(2-20)-induced apoptosis (NK cells and T cells; [6]): completely prevented

Compound: c1ccc2c(c1)[I+]c1ccccc1-2 [diphenlyeneiodonium]
Treatment of gastrointestinal ulcers (Helicobacter pylori): effective in expediting the treatment of gastrointestinal ulcers
Treatment of dental carries (Streptococcus mutans): effective in treating the dental carrier
Treatment of diarrhea [3]: effective in accelerating the treatment of diarrhea
Recovery of a patient with pneumonia (Streptococcus pneumonia): hastens the recovery

Compound: NC(=O)C1=CN([C@@H]2O[C@H](COP(=O)(O)OP(=O)(O)OC[C@H]3O[C@@H](n4cnc5c(N)ncnc54)[C@H](O)[C@@H]3O)[C@@H](O)[C@H]2O)C=CC1 [NADH]
Km (NADPH oxidase): 450 µM

Compound: AKKVFKRLEKLFSKIQNDK [Hp(2-20), cecropin-like peptide derived from Helicobacter pylori]
Induction of NK cell and T cell apoptosis by monocytes treated with the peptide (NK cells and T cells; Hp(2-20) 50 μM, lymphocytes + 25% or 50% monocytes, overnight (16 hrs) incubation): induces apoptosis of T lymphocytes with CD3ε^+ phenotype and natural killer cells with CD56^+ phenotype; also recorded: triggers programmed cell death (apoptosis) of NK cells and T cells; also recorded: pronounced in NK cells as well as in CD3ε^+ T cells; also recorded: triggered NK cell and T cell death by apoptosis
Superoxide anion formation in phagocytic cells [4]: potently triggers superoxide anion formation

Compound: [H]/N=C(/N)N[C@H]1[C@H](O)[C@@H](O)[C@H](O[C@@H]2O[C@@H](C)[C@](O)(C=O)[C@H]2O[C@@H]2O[C@@H](CO)[C@H](O)[C@@H](O)[C@@H]2NC)[C@@H](N/C(N)=N\[H])[C@@H]1O [streptomycin]
In vitro sensitivity of S somaliensis (S somaliensis): sensitive

Compound: NC(=O)C1=CN([C@@H]2O[C@H](COP(=O)(O)OP(=O)(O)OC[C@H]3O[C@@H](n4cnc5c(N)ncnc54)[C@H](OP(=O)(O)O)[C@@H]3O)[C@@H](O)[C@H]2O)C=CC1 [NADPH]
Km (NADPH oxidase): 45 µM

Compound: CC[C@H]1OC(=O)[C@H](C)[C@@H](O[C@H]2C[C@@](C)(OC)[C@@H](O)[C@H](C)O2)[C@H](C)[C@@H](O[C@@H]2O[C@H](C)C[C@H](N(C)C)[C@H]2O)[C@](C)(O)C[C@@H](C)C(=O)[C@H](C)[C@@H](O)[C@]1(C)O [erythromycin]
In vitro sensitivity of S somaliensis (S somaliensis): sensitive

Source: patent US20030149090A1, “Compositions for the treatment of infectious diseases” (priority 2001, published 2003)
